“Also recorded” adds a separate entry of the source.
Columns and labels:
EAE in C57BL/6 mice = experiment: Rotarod testing of motor coordination and balance in EAE, C57BL/6 mice; assay type: in vivo, mouse; design: key to Rotarod Score: n.s. = not significant; *p < 0.05; ***p = 0.0004; ****p < 0.0001; n.i. = not informative; details: for Rotarod Score: significance vs vehicle
Protocol: Rotarod Testing. Motor behavior was tested up to two times per week for each mouse using a rotarod apparatus (Med Associates Inc., St. Albans, Vt.). Briefly, animals were placed on a rotating horizontal cylinder for a maximum of 200 seconds. The amount of time the mouse remained walking on the cylinder, without falling, was recorded. Each mouse was tested on a speed of 3-30 rpm and given three trials for any given day. The three trials were averaged to report a single value for an individual mouse, and then averages were calculated for all animals within a given treatment group. The first two trial days prior to immunization (day 0), served as practice trials.

[1] = system: spinal cords of C57BL/6 females with EAE; experiment: Spinal cord neuropathology (immunohistochemistry) in EAE; assay type: in vivo, mouse; details: vs vehicle treated EAE
Protocol: Histological Preparation. Mice were exposed to a lethal dose of isoflurane and perfused transcardially with ice-cold 1×PBS for 8-15 min, followed by 10% formalin for 10-15 min. Spinal cords and brains were dissected and submerged in 10% formalin overnight at 4° C., followed by 30% sucrose in PBS for 24 h. Tissues were embedded in […] solution for cryostat sectioning then post-fixed overnight in 10% formalin and cryoprotected in 30% sucrose. The embedded tissues were stored in −80° C. after flash frozen in dry ice. 40 μm thick free-floating spinal cord cross-sections, and sagittal brain sections were obtained with a microtome b cryostat (model HM505E) at −20° C. Tissues were collected serially and stored in 1×PBS with 1% sodium azide in 4° C. until immunohistochemistry.
Immunofluorescence. Prior to histological staining, […] free-floating sections were thoroughly washed with 1×PBS to remove residual sodium azide. In the case of anti-MBP labeling, tissue sections were processed with an additional 1 hour incubation with 5% glacial acetic acid in 100-proof ethanol at room temperature (RT). After washing tissue sections were permeabilized with 0.3% TritonX-100 and 2% normal goat serum in 1×PBS for 30 minutes at room temperature and blocked with 10% normal goat serum in 1×PBS for 1 hour. Tissues were then incubated with primary antibodies overnight in 4° C. The following primary antibody (Ab) were used: Rat anti-MBP (Millipore) at 1:1000 dilutions, Rabbit anti-NF200 (Sigma Aldrich) at 1:750 dilutions, Rabbit anti-beta-APP (Life Technologies) at 1:200 dilutions, Mouse anti-NeuN at 1:1000 dilutions (Millipore), Rabbit anti-PSD95, and Rabbit anti-Synapsin 1 at 1:500 dilutions (Millipore), and Rat anti-CD45 at 1:1500 dilutions (Millipore). The next day tissues were washed and incubated with secondary antibodies conjugated to Cy5 or Cy3 (Millipore) for 1 hour at room temperature. A nuclear stain DAPI (2 ng/mL; Molecular Probes) was added 10 minutes prior to final washes after secondary Ab incubation. Sections were mounted on slides, allowed to semi-dry, and cover slipped in fluoromount G (Fisher Scientific). IgG-control experiments were performed for all primary Ab, and only non-immunoreactive tissues under these conditions were analyzed.
Chromagen Immunohistochemistry. […] Tissues were then incubated with primary antibodies overnight in 4° C. The following primary antibodies were used: Rat anti-CD3 at 1:2000 dilutions (BD Pharmingen), anti-Calbindin D28K at 1:1000 dilutions (Millipore), and Rabbit anti-Iba1 at 1:10000 dilutions (Wako Chemicals), were added for 2 hour at room temperature, and then placed in 4° C. overnight. Tissue sections then followed with secondary Ab labeling at 1:1000 dilutions (Vector labs) for 1 hour at room temperature and then with Avidin-Biotin Conjugation solution (Vector Labs) for 1 hour at room temperature. Tissue sections were treated with DAB peroxidase substrate (Vector labs) according to manufacturer instructions. IgG-control experiments were performed for all primary Ab, and only non-immunoreactive tissues under these conditions were analyzed.
Microscopy and Quantification. Three spinal cord cross-sections at the C5-12 level from each mouse (n=3-6) were captured under microscope at 10× magnification. To quantify demyelination in the spinal cord and cerebellum, white matter was manually delineated on the basis of DAPI staining, and MBP staining intensity was calculated and reported in the sampled area. Axonal damage was assessed by counting beta-APP^+ cells in a confocal 10× microscope in spinal cord. Axonal densities were calculated by counting the number of NF200^+ or NeuN^+ neuronal cells in a 10× confocal image in the sampled area of the captured tissue section. Cerebellar Purkinje (Calbindin^+) cells were manually counted using a brightfield 10× microscope over the entire sagittal cerebellum. […]

[2] = 10 mg/kg every other day in miglyol, EAE day 60
[3] = 30 mg/kg every other day in miglyol

Structure (SMILES): Oc1ccc(C2(c3ccccc3F)CCC(F)(F)CC2)cc1 [AC-186]
- Rotarod Score (EAE in C57BL/6 mice; C57BL/6 F, AC186 3 mg/kg, sesame vehicle): n.s.
- Rotarod Score (EAE in C57BL/6 mice; C57BL/6 F, AC186 10 mg/kg, miglylol vehicle): n.s
- Rotarod Score (EAE in C57BL/6 mice; C57BL/6 F, AC186 10 mg/kg, sesame vehicle): n.s.
- Rotarod Score (EAE in C57BL/6 mice; C57BL/6 F, AC186 30 mg/kg, miglylol vehicle): *** (***p = 0.0004)
- Rotarod Score (EAE in C57BL/6 mice; C57BL/6 F, AC186 30 mg/kg, sesame vehicle): n.s.
- Rotarod Score (EAE in C57BL/6 mice; C57BL/6 M, AC186 30 mg/kg, miglylol vehicle): **** (****p < 0.0001)
- Rotarod Score (EAE in C57BL/6 mice; C57BL/6 M, AC186 30 mg/kg, sesame vehicle): n.s.
- Rotarod times (EAE in C57BL/6 mice; female C57BL/6, 30 mg/kg in miglyol, vs miglyol vehicle): significant efficacy in the rotarod experiment; also recorded: beneficial effects; also recorded: showed an improvement; also recorded: significant improvement
- Rotarod performance at the final two time-points (EAE in C57BL/6 mice; female C57BL/6, 30 mg/kg in sesame oil, days 48 and 50, 200 second test): performed perfectly
- Rotarod times (EAE in C57BL/6 mice; female C57BL/6, 30 mg/kg in sesame oil, vs vehicle): No significant effect was observed
- Rotarod times (EAE in C57BL/6 mice; male C57BL/6, 30 mg/kg in miglyol, vs miglyol alone): performed significantly better; also recorded: better rotarod scores
- Rotarod times (EAE in C57BL/6 mice; male C57BL/6, 30 mg/kg in sesame oil, vs sesame oil alone): did not perform significantly better
- Axonal densities / axon numbers (NF200), spinal cord [1, 2]: Neuroprotective effects; also recorded: significantly more axon numbers
- Myelin staining intensity (MBP), spinal cord [1, 2]: a trend for somewhat higher MBP staining intensity
- beta-APP expression (axonal damage), spinal cord [1, 2]: Neuroprotective effects; also recorded: a trend of less beta-APP staining
- CD3 stained cells (T lymphocytes), spinal cord ([1]; 10 mg/kg in miglyol): neither AC-186 dose affected levels of CD3 staining; also recorded: no differences in the number of CD3 stained cells
- CD45 immunoreactivity (all immune cells), spinal cord ([1]; 10 mg/kg in miglyol): reduced CD45 staining; also recorded: a reduction of CD45 expression
- Iba-1 globoid cells (macrophage like cells), spinal cord ([1]; 10 mg/kg in miglyol): reduced Iba-1 globoid cell staining; also recorded: a significant reduction in the number of Iba-1 stained cells with globoid morphology
- Axonal densities / axon numbers (NF200), spinal cord [1, 3]: significantly preserved axon numbers; also recorded: sparing of axons and myelin; also recorded: significantly more axon numbers
- Myelin staining intensity (MBP), spinal cord [1, 3]: a trend for sparing myelin; also recorded: observed as significant; also recorded: a trend for somewhat higher MBP staining intensity
- beta-APP expression (axonal damage), spinal cord [1, 3]: reduced axonal damage; also recorded: significantly less expression of beta-APP
- CD3 stained cells (T lymphocytes), spinal cord ([1]; 30 mg/kg in miglyol): neither AC-186 dose affected levels of CD3 staining; also recorded: no differences in the number of CD3 stained cells
- CD45 immunoreactivity (all immune cells), spinal cord ([1]; 30 mg/kg in miglyol): reduced CD45 staining; also recorded: lowering CD45 and Iba-1; also recorded: a reduction of CD45 expression
- Iba-1 globoid cells (macrophage like cells), spinal cord ([1]; 30 mg/kg in miglyol): reduced Iba-1 globoid cell staining; also recorded: lowering CD45 and Iba-1; also recorded: a significant reduction in the number of Iba-1 stained cells with globoid morphology

— patent US11628146B2, “Estrogen receptor ligand treatment for neurodegenerative diseases” (The Regents of the University of California, priority 2014, dated 2023)
